Data reported in paper PMC8151276, “An Integrated Approach toward NanoBRET Tracers for Analysis of GPCR Ligand Engagement” (Molecules, 2021).

What was measured:
Assay type in all cases: binding
ADORA2B = molecular target: T1, ADORA2B (Homo sapiens, UniProt P29275); experiment: NanoBRET screen HiBiT-ADORA2B in HEK293
T1 construct: purchased Promega (in-house HiBiT-GPCR construct library, NanoBRET)
T1 sequence (P29275 1-332): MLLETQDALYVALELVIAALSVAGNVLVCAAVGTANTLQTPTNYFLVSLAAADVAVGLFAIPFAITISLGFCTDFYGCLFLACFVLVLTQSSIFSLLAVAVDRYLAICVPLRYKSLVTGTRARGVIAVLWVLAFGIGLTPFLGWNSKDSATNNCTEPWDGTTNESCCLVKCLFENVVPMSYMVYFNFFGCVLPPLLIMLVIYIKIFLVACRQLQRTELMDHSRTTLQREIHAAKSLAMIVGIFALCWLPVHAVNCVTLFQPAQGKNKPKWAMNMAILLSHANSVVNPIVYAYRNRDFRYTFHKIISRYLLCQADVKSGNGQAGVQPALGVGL
Protocol: (§1) Each tracer candidate was screened across the entire library of HiBiT-GPCR constructs using NanoBRET as the detection modality. As depicted in Figure 4A, the specificity of interactions was evaluated through decrease in BRET due to competitive displacement of a bound tracer by excess parental compound. Each tracer was analyzed for binding to each HiBiT-GPCR fusion in the absence and in the presence of competing parental compound. Briefly, HEK293 cells were transfected with HiBiT-GPCR constructs diluted into promoterless DNA to reduce expression and maximize translocation to the cell surface. Each tracer candidate was then screened at concentrations of 1 μM and 0.1 μM across cells expressing these fusions. Cells were treated for 1.5 h with tracer either alone or in the presence of 20 μM competing parental compound (i.e., control). BRET was measured upon addition of purified LgBiT and subsequent complementation with HiBiT genetically fused to a GPCR. The specificity of interactions was assessed through a decrease in BRET signal due to competitive displacement of the bound tracer. To further gauge the robustness of these interactions, the fold response over the control (i.e., BRETtracer/BRETcontrol) was calculated. We chose a 1.5-fold response, which translates to ≥7-fold signal over noise as the minimal threshold required to score an interaction as positive. […]. Below we highlight the screening results obtained for our exemplary fluorescent tracers based on Clozapine, Amitriptyline and AZD1283.
(§2) HiBiT-GPCR DNA constructs were diluted in 10 mM Tris pH 8 to a final concentration of 0.01 μg/μL, arrayed in 96-well plates and stored at −20 °C. For transfection, HEK293 cells were suspended in Opti-MEM (without phenol red) supplemented with 2% fetal bovine serum (Seradigm) and 100 units/mL penicillin–streptomycin (Gibco) at a final concentration of 220,000 cells/mL and dispensed into white 96-well plates at 90 μL/well. Subsequent transfections and screens were carried using an Agilent Bravo Automated Liquid Handling Platform. First, the 96-well HiBiT DNA arrays were diluted 25-fold in Opti-MEM (without serum or phenol red) to a final concentration of 0.0004 μg/μL and 20 μL of the diluted DNAs were transferred into new 96-well plates. Next, promoterless carrier DNA (1 μg/μL) was diluted 25-fold (0.04 μg/μL) and then dispensed into the diluted arrays at 20 μL/well. Following brief mixing, Viafect transfection reagent (Promega) diluted 16-fold into Opti-MEM was dispensed into the plates at 40 μL/well. After mixing by pipetting, plates were incubated for 10 min on the pipetting station deck. The DNA-transfection reagent complexes were then added to plates containing cells. To facilitate the screen, 10 μL of DNA-transfection reagent complexes were added in duplicates to the top 4 and bottom 4 rows, resulting in two identical 48-well arrays per plate. Plates with transfected cells were incubated for 18–20 h at 37 °C/5% CO2. A screen of each tracer across the entire library using two different concentrations requires duplicate plates of transfected cells. Depending on the number of tracers being screened, transfections can be scaled up using the same ratios. The next day, for each tracer, four 20× screening solutions in tracer dilution buffer (Promega) were prepared: two duplicates at final concentration of 20 μM and two duplicates at a final concentration of 2 μM. A competing unmodified compound was added to one of each duplicate at a final concentration of 400 μM. The four resulting solutions were diluted 4-fold in Opti-MEM without serum or phenol red to generate 5× solutions (5 µM and 0.5 µM tracer +/− 100 μM competing compound). To screen the library, a BioTek MultiFlo FX liquid dispenser was used to dispense 22.5 µL of tracer solution to the top 4 rows and 22.5 µL tracer + competing compound solution to the 4 bottom rows. Plates were briefly mixed on an orbital shaker and incubated for 1.5 h at room temperature. […]

MTNR1B = molecular target: T2, MTNR1B (Homo sapiens, UniProt P49286); experiment: NanoBRET screen HiBiT-MTNR1B in HEK293
T2 construct: purchased Promega (in-house HiBiT-GPCR construct library, NanoBRET)
T2 sequence (P49286 1-362): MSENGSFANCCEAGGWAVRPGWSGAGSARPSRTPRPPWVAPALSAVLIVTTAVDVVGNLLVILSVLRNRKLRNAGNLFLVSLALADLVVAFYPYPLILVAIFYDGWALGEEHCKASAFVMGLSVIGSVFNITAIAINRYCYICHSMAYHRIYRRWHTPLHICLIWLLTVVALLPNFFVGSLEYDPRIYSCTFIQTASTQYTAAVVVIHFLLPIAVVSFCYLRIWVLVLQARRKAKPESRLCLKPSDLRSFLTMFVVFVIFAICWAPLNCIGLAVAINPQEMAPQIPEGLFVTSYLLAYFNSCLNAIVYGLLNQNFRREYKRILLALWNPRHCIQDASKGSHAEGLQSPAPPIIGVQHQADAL
Protocol: as §1, §2

FZD1 = molecular target: T3, FZD1 (Homo sapiens, UniProt Q9UP38); experiment: NanoBRET screen HiBiT-FZD1 in HEK293
T3 construct: purchased Promega (in-house HiBiT-GPCR construct library, NanoBRET)
Protocol: as §1, §2

GRM4 = molecular target: T4, GRM4 (Homo sapiens, UniProt Q14833); experiment: NanoBRET screen HiBiT-GRM4 in HEK293
T4 construct: purchased Promega (in-house HiBiT-GPCR construct library, NanoBRET)
Protocol: as §1, §2

T4 sequence (Q14833 33-912): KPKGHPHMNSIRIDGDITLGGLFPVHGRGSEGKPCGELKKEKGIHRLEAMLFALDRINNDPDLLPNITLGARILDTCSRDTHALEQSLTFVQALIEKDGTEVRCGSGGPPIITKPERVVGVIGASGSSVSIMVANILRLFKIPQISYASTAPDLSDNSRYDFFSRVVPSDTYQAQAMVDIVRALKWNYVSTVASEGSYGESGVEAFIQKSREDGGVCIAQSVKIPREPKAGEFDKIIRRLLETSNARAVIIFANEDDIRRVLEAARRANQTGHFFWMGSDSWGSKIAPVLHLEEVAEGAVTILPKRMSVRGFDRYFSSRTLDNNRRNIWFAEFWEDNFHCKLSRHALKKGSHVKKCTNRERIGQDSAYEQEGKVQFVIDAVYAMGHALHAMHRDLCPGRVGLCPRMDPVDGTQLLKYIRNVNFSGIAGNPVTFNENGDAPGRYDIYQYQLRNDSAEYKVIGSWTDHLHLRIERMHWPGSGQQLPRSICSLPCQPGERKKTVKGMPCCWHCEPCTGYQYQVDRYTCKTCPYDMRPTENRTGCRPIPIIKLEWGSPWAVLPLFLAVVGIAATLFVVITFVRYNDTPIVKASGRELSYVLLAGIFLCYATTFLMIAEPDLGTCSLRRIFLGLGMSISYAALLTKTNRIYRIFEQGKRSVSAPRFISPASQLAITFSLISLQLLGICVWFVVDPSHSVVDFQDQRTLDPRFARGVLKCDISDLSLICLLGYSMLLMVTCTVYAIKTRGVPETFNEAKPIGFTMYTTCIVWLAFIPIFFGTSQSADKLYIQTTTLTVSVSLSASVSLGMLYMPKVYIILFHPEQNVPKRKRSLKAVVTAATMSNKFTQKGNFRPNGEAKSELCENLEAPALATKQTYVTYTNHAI
T3 sequence (Q9UP38 70-647): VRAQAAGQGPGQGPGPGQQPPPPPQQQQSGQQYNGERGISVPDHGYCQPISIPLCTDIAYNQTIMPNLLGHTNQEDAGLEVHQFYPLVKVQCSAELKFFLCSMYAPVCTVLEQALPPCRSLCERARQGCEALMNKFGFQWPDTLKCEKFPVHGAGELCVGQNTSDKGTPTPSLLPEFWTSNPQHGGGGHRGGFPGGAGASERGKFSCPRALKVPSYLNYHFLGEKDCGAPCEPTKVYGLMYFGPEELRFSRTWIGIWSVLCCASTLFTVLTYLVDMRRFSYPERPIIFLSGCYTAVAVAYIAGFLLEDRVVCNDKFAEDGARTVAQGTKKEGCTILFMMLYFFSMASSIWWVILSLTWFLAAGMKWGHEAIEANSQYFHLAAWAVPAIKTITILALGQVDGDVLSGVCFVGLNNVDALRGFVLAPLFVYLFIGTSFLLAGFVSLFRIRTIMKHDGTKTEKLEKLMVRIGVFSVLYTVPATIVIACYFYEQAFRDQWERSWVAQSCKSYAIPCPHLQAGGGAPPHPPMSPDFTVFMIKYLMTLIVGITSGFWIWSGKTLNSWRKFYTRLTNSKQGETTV

Compound	NanoBRET Fold Response (ADORA2B; ADORA2B, tracer 0.1μM)	NanoBRET Fold Response (ADORA2B; ADORA2B, tracer 1μM)	NanoBRET Fold Response (MTNR1B; MTNR1B, tracer 0.1μM)	NanoBRET Fold Response (MTNR1B; MTNR1B, tracer 1μM)	NanoBRET Fold Response (FZD1; FZD1, tracer 0.1μM)	NanoBRET Fold Response (FZD1; FZD1, tracer 1μM)	NanoBRET Fold Response (GRM4; GRM4, tracer 0.1μM)	NanoBRET Fold Response (GRM4; GRM4, tracer 1μM)	other results
O=C(CCOCCOCCOCCOCCNC(=O)CCc1ccc2n1[B-](F)(F)[N+]1=C(c3ccc[nH]3)C=CC1=C2)NCCCN1CCN(C2=Nc3ccccc3Oc3ccc(Cl)cc32)CC1 [Loxapine-a-2-NB590]	1.41	0.62	0.44	1.04	1.17	1.03	1.04	0.99	–
CCCn1c(=O)c2[nH]c(-c3ccc(OCC(=O)NCCNC(=O)CCOCCNC(=O)c4ccc(CNC(=O)CCc5ccc6n5[B-](F)(F)[N+]5=C(c7ccc[nH]7)C=CC5=C6)cc4)cc3)nc2n(CCC)c1=O [XAC-3-NB590]	8.09	3.98	1.07	1.05	0.78	1.33	1.03	1.07	–
CN(C)CCC=C1c2ccccc2CCc2ccc(C(=O)NCCNC(=O)CCOCCOCCOCCOCCNC(=O)CCc3ccc4n3[B-](F)(F)[N+]3=C(c5ccc[nH]5)C=CC3=C4)cc21 [Amitriptyline-a-2-NB590]	–	–	–	–	–	–	–	–	NanoBRET Fold Response (ADORA2B; tracer at 0.1μM): 1.10; NanoBRET Fold Response (ADORA2B; tracer at 1μM): 0.93; NanoBRET Fold Response (FZD1; tracer at 0.1μM): 0.92; NanoBRET Fold Response (FZD1; tracer at 1μM): 0.98
COc1ccccc1N1CCN(CCCCN2C(=O)c3ccc(CNC(=O)CCOCCOCCOCCOCCNC(=O)CCc4ccc5n4[B-](F)(F)[N+]4=C(c6ccc[nH]6)C=CC4=C5)cc3C2=O)CC1 [NAN-190-2-NB590]	0.94	0.64	–	1.00	0.99	1.06	0.98	0.97	–
O=C(CCc1ccc2n1[B-](F)(F)[N+]1=C(c3ccc[nH]3)C=CC1=C2)NCc1ccc(C(=O)NCCOCCOCCNCC(O)COc2cccc3ccccc23)cc1 (stereo not shown) [Propranolol-3-NB590]	–	–	–	–	–	–	–	–	NanoBRET Fold Response (ADORA2B; ADORA2B, 0.1μM): 1.10; NanoBRET Fold Response (ADORA2B; ADORA2B, 1μM): 0.95; NanoBRET Fold Response (MTNR1B; MTNR1B, 0.1μM): 0.96; NanoBRET Fold Response (MTNR1B; MTNR1B, 1μM): 0.98; NanoBRET Fold Response (FZD1; FZD1, 0.1μM): 0.97; NanoBRET Fold Response (FZD1; FZD1, 1μM): 0.98; NanoBRET Fold Response (GRM4; GRM4, 0.1μM): 1.11; NanoBRET Fold Response (GRM4; GRM4, 1μM): 1.04
COc1ccccc1N1CCN(CCCCN2C(=O)c3ccc(CNC(=O)CCOCCNC(=O)c4ccc(CNC(=O)CCc5ccc6n5[B-](F)(F)[N+]5=C(c7ccc[nH]7)C=CC5=C6)cc4)cc3C2=O)CC1 [NAN-190-3-NB590]	0.94	1.30	1.20	1.15	0.83	1.01	1.14	1.33	–
O=C(CCc1ccc2n1[B-](F)(F)[N+]1=C(c3ccc[nH]3)C=CC1=C2)NCc1ccc(C(=O)NCCOCCC(=O)N[C@@H]2CC[C@@]3(O)[C@H]4Cc5ccc(O)c6c5[C@@]3(CCN4CC3CC3)[C@H]2O6)cc1 [Naltrexone-3-NB590]	0.20	0.77	0.94	0.66	1.07	1.05	0.75	1.05	–
CCOC(=O)c1cc(C#N)c(N2CCC(C(=O)NS(=O)(=O)Cc3ccccc3/C=C/C(=O)NCCNC(=O)CCc3ccc4n3[B-](F)(F)[N+]3=C(c5ccc[nH]5)C=CC3=C4)CC2)nc1C [AZD1283-1-NB590]	–	–	–	–	–	–	–	–	NanoBRET Fold Response (ADORA2B; ADORA2B, 0.1μM): 0.94; NanoBRET Fold Response (ADORA2B; ADORA2B, 1μM): 0.93; NanoBRET Fold Response (MTNR1B; MTNR1B, 0.1μM): 0.97; NanoBRET Fold Response (MTNR1B; MTNR1B, 1μM): 0.53; NanoBRET Fold Response (FZD1; FZD1, 0.1μM): 1.06; NanoBRET Fold Response (FZD1; FZD1, 1μM): 1.07; NanoBRET Fold Response (GRM4; GRM4, 0.1μM): 1.06; NanoBRET Fold Response (GRM4; GRM4, 1μM): 1.07
COc1ccc2[nH]c(-c3ccc(CNC(=O)CCOCCOCCOCCOCCNC(=O)CCc4ccc5n4[B-](F)(F)[N+]4=C(c6ccc[nH]6)C=CC4=C5)cc3)c(CCNC(C)=O)c2n1 [AzomelatoninICO9-2-NB590]	–	–	–	–	–	–	–	–	NanoBRET Fold Response (ADORA2B; 0.1μM tracer): 0.82; NanoBRET Fold Response (ADORA2B; 1μM tracer): 1.21; NanoBRET Fold Response (MTNR1B; 0.1μM tracer): 2.05; NanoBRET Fold Response (MTNR1B; 1μM tracer): 2.32; NanoBRET Fold Response (FZD1; 0.1μM tracer): 0.86; NanoBRET Fold Response (FZD1; 1μM tracer): 1.05; NanoBRET Fold Response (GRM4; 0.1μM tracer): 0.97; NanoBRET Fold Response (GRM4; 1μM tracer): 0.85
CC(C)N(CC[C@H](c1ccccc1)c1cc(CCNC(=O)CCOCCOCCOCCOCCNC(=O)CCc2ccc3n2[B-](F)(F)[N+]2=C(c4ccc[nH]4)C=CC2=C3)ccc1O)C(C)C [Tolterodine-2-NB590]	0.81	0.97	0.95	0.79	0.97	0.97	0.97	1.14	–
CN(CCC=C1c2ccccc2CCc2ccccc21)C(=O)CCOCCOCCOCCOCCNC(=O)CCc1ccc2n1[B-](F)(F)[N+]1=C(c3ccc[nH]3)C=CC1=C2 [Amitriptyline-e-2-NB590]	–	–	–	–	–	–	–	–	NanoBRET Fold Response (FZD1; tracer at 1μM): 0.98
